Assay results published in patent US9539341B2, “Methods and compositions for targeting adipose cells in mammals” (Board of Regents, the University of Texas System, priority 2011, dated 2017).
Entries after “also recorded” stand apart in the source; their conditions may differ.

Legend:
[1] = test system: C34+CD31−CD45− cells isolated from lung; experiment: In vivo competition (re-homing) assay of 11 admixed phage clones, lung; parameters: species or system mouse; conditions: equal amounts of 11 phage clones mixed and injected; percent of sequenced clones on C34+CD31−CD45− cells from lung
Description: (§1) For competitive homing experiment, 5×10^9 TU for each of the 11 chosen phage clones were admixed and the combined 5.5×10^10 TU was injected. For validation of individual clones, 1×10^10 TU for each phage clones was injected. After 1 hr of circulation and heart perfusion with 10 ml of phosphate buffer saline (PBS), WAT, tibia/femurs, bone-associated skeletal muscle, and lungs were collected. Bone marrow was isolated by flushing tibia/femurs. Hematopoietic and endothelial cells were depleted from cell suspensions of each organ by Dynabeads (Invitrogen) coated with anti-TER119, anti-CD31, and anti-CD45 antibodies (BD Biosciences), after which the remaining cells were processed by FACS to purify CD34+CD31−CD45− cells. Bound phage were recovered by infecting K91 E. coli, quantified by phage transforming unit (TU) counting, and processed for sequencing of the peptide-coding DNA as described in Arap, et al. 2002, ibid and Kolonin, et al., 2006, ibid. For identification of conserved peptide motifs, ClustalW2 software was used.
(§2) After 4 rounds of synchronous in vivo biopanning, eight CX7C and CX8C sequences repeatedly recovered from ASC with frequency above 1% were identified, which were termed WAT1 through WAT8 (see Table 1 below). In parallel, a matched number of peptide inserts homing to lung stromal cells (LSC) were sequenced as a control. None of the WAT-homing peptides were enriched in the lung. Four sequences repeatedly recovered in the lung with frequency above 1%, were termed LU1 through LU4 (see Table 1 below). […] Because the focus of this study is WAT-specific MSC, this clone was excluded from further analysis. Other selected peptides were subjected to an in vivo competition assay in order to identify those with the highest specificity of binding. Equal amounts of phage for the 11 clones displaying peptides WAT1 through WAT7 (SEQ ID NOS: 1-14) and LU1 through LU4 (SEQ ID NOS: 17-24) were admixed and injected into a mouse. Homing specificity of each clone was assessed by quantifying frequency of phage coding for each peptide selected on C34+CD31−CD45− cells isolated from either WAT or lung.

[2] = test system: CD34+CD31−CD45− cells (MSC) from lung; experiment: Synchronous in vivo phage display biopanning, clones recovered from lung MSC (LSC); parameters: species or system mouse; conditions: percent of sequenced phage clones carrying the insert in lung after 4 rounds of synchronous in vivo biopanning on CD34+CD31−CD45− cells
From the text: (§3) Phage Library Screening: Random peptide libraries based on the M13-derived bacteriophage vector fUSE5 displaying inserts CX7C, CX8C, and CX9C on the pIII protein were admixed (1:1:1) to the combined 10^10 TU of mixed library for the screen performed based on the synchronous biopanning in vivo upon tail vein injection (see for example, US20050074747 and Arap, et al., Nat. Med. 8:121-127, 2002; Kolonin, et al., FASEB J. 20: 979-981, 2006).
as §1
(§4) Methods for isolation of MSC by fluorescence-activated cell sorting (FACS) from organ cell suspensions based on the C34+CD31−CD45− immunophenotype (FIG. 8B) were combined with phage display and optimized for ASC. By adapting the previously described “synchronous in vivo biopanning” method of (Kolonin et al., 2006, ibid), a mixture of cyclic CX7C, CX8C, and CX9C (C: disulfide-bonded cysteines; X: any amino acid) random peptide libraries was screened (FIG. 1A). This approach made it possible to select MSC probes from the pool of over 10^11 combinatorial peptides. Throughout the screen, progressive enrichment in the number of phage particles recovered on MSC from WAT, as well as from the chosen control organs: lung, bone marrow, and skeletal muscle (FIG. 1B) was observed.
as §2
(§5) Shown in Table 1 above are the percent (%) of the sequenced phage clones that carried the indicated WAT or LU insert present within WAT (% in WAT) or lung (% in LUNG) following 4 rounds of synchronous in vivo biopanning on CD34+CD31−CD45− cells.

[3] = test system: CD34+CD31−CD45− cells (MSC) from WAT; experiment: Synchronous in vivo phage display biopanning, clones recovered from WAT MSC (ASC); parameters: species or system mouse; conditions: percent of sequenced phage clones carrying the insert in WAT after 4 rounds of synchronous in vivo biopanning on CD34+CD31−CD45− cells
From the text: as §3, §1, §4, §2, §5

[4] = test system: WAT CD34+CD31−CD45− cells (ASC) versus lung CD34+CD31−CD45− cells (LSC); experiment: Homing of individual phage-peptide clones injected separately, TU on WAT vs lung MSC; format: in vivo, mouse; conditions: individual phage clones injected into mice, FIG. 1C
From the text: FIGS. 1A-C depict the screen for MSC-homing peptides. (A) depicts the schematic for a screen for peptides homing to organ-specific MSC populations. […] In every selection round, erythroid (TER119+), endothelial (CD31+) and hematopoietic (CD45+) cells were immunodepleted and then FACS was used to collect CD34+CD31−CD45− cells (MSC) from WAT, lung, bone marrow, and skeletal muscle. (B) Phage-peptides bound to WAT MSC (ASC), in parallel with phage-peptides bound to MSC of control organs, were quantified, amplified, pooled, and used for the next round of biopanning. Increased recovery of phage transforming units (TU) in successive rounds reflects the enrichment of phage-peptides homing to MSC of individual target organs. (C) Relative specificity of ASC homing assessed for individual phage-peptide clones separately injected into mice as a ratio of TU recovered on WAT to CD34+CD31−CD45− to TU recovered on lung CD34+CD31−CD45− cells. Fd-Tet: control insertless phage. Values shown are mean±SD for triplicate measurements.
For competitive homing experiment, 5×10^9 TU for each of the 11 chosen phage clones were admixed and the combined 5.5×10^10 TU was injected. […] Bound phage were recovered by infecting K91 E. coli, quantified by phage transforming unit (TU) counting, and processed for sequencing of the peptide-coding DNA as described in Arap, et al. 2002, ibid and Kolonin, et al., 2006, ibid. […]

[5] = test system: C34+CD31−CD45− cells isolated from WAT; experiment: In vivo competition (re-homing) assay of 11 admixed phage clones, WAT; parameters: species or system mouse; conditions: equal amounts of 11 phage clones mixed and injected; percent of sequenced clones on C34+CD31−CD45− cells from WAT
Description: as §1, §2

Substance	Re-home to Lung (%) [1]	% in LUNG [2]	% in WAT [3]	specificity of homing to ASC compared to lung MSC [4]	Re-home to WAT (%) [5]
AVYRSTG [LU-1]	52.2%	71.6%	0%		
CWLGEWLGC [mPep]				modest preference for ASC; also recorded: did not display any WAT specificity	
GQWLGNWL [WAT-8]	13.6%	0%	13.6%	modest preference for ASC	0%
GSGGMSPS [WAT-6]	1.9%	0%	1.9%		0%
IRGKAGR [LU-4]	1.1%	5.2%	0%		0%
KHYGGGVA [WAT-1]	9.1%	0%	9.1%		1.1%
LGVGPGF [LU-3]	1.1%	5.2%	0%		0%
LRQGNPT [WAT-5]	1.9%	0%	1.9%		0%
RFLLPQG [WAT-3]	3.9%	0%	3.9%		0%
YEGSEVS [WAT-4]	2.9%	0%	2.9%		0%
